The values that follow come from US20060233935A1, “Rhamnolipids in bakery products” (priority 2002, published 2006).

The data set in a line: Non-dairy cream filling evaluation (Example 16). The settings on record: 0.01% (w/w) in liquid preparation. The procedure:
Polysorbate 60 has been replaced by rhamnolipids in non-dairy cream filling for pastries.
The following preparation process was used: The starch is mixed with the water, sugar and glucose syrup are added together with the emulsifier and titanium dioxide. After mixing until homogenous all the other ingredients are added and mixed again. The total mixture is heated until jellification of the starch.
Bake stability (180° C., 30 minutes), color, taste, speed of incorporation of fat into the mixture and possible separation of fat during conservation are evaluated (Table 16).

As to Polysorbate 60, the Stability during conservation result was “Stable during”.
